Reference: the supplement of paper PMC4862054

Experiments:
Settings in all cases: incubation time: 72 h
[1] = system: MCF-10A; test: drug sensitivity score (DSS), CellTox Green (DSS (AUC-based score)); higher = stronger drug effect (viability inhibition or cytotoxicity); extreme values may be limits of the assay
In short: (§1)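 A drug sensitivity score was derived from the area under each fitted dose-response curve. Breast cancer cells (20 µl suspension) were seeded onto compound in 384-well plates, using 5 concentrations 10-fold apart over a compound-specific 10,000-fold range, and incubated 72 h. Readouts were CellTox Green fluorescence and then CellTiter-Glo luminescence, with every plate normalised to 0.1 % DMSO and a positive kill control.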

[2] = system: HCC1937; test: as above
In short: as §1

[3] = system: CAL-85-1; test: as above
In short: as §1

[4] = system: MFM-223; test: as above
In short: as §1

[5] = system: DU-4475; test: as above
In short: as §1

[6] = system: CAL-120; test: as above
In short: as §1

[7] = system: CAL-51; test: as above
In short: as §1

[8] = system: MDA-MB-231; test: as above
In short: as §1

[9] = system: MDA-MB-453; test: as above
In short: as §1

[10] = system: BT-474; test: as above
In short: as §1

[11] = system: MDA-MB-436; test: as above
In short: as §1

[12] = system: HCC1599; test: as above
In short: as §1

[13] = system: HCC1143; test: as above
In short: as §1

[14] = system: BT-549; test: as above
In short: as §1

[15] = system: HCC1937; test: normalised viability (% of control), CellTiter-Blue; higher = more viable cells (about 100 = DMSO control)
In short: (§2)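 Seeded at 20 µl suspension per well onto compound-loaded 384-well plates, breast cancer cell lines were incubated 72 h. CellTiter-Blue fluorescence at 560/590 nm was then read, with each plate normalised to vehicle (100) and a positive kill control (0). Normalised viability is reported at a single listed concentration of the series.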

[16] = system: CAL-85-1; test: as above
In short: as §2

[17] = system: CAL-120; test: as above
In short: as §2

[18] = system: HDQ-P1; test: as above
In short: as §2

[19] = system: MDA-MB-468; test: as above
In short: as §2

[20] = system: MDA-MB-453; test: as above
In short: as §2

[21] = system: BT-474; test: as above
In short: as §2

[22] = system: MDA-MB-436; test: as above
In short: as §2

[23] = system: HCC1143; test: as above
In short: as §2

[24] = system: BT-549; test: as above
In short: as §2

[25] = system: CAL-148; test: as above
In short: as §2

COc1cc2c(Oc3ccc(NC(=O)C4(C(=O)Nc5ccc(F)cc5)CC4)cc3F)ccnc2cc1OCCCN1CCOCC1 [Foretinib]
Settings | drug sensitivity score
[1] | 0
[2] | 0
[3] | 0
[4] | 0
[5] | 0
[6] | 0
[7] | 4.29
[8] | 10.4
[9] | 0
[10] | 0
[11] | 0
[12] | 0
[13] | 1.04
[14] | 0

normalised viability [%]
Settings | 0.3 nM | 1 nM | 3 nM | 10 nM | 100 nM | 1000 nM
[15] | – | 80.8 | – | – | 91.3 | 64.9
[16] | 95 | – | 86.3 | 95.8 | – | –
[17] | – | 88.3 | – | – | 95.4 | 41.8
[18] | 107 | – | 99.2 | 105 | – | –
[19] | – | 102 | – | – | 111 | 52.4
[20] | 115 | – | 91.6 | 85.9 | – | –
[21] | – | 102 | – | – | 117 | 84.3
[22] | – | 132 | – | – | 77.8 | 84
[23] | – | 104 | – | – | 103 | 82.8
[24] | – | 79 | – | – | 101 | 72
[25] | 99.8 | – | 97.6 | 96.4 | – | –

CC(C)C(=O)Nc1ccc([N+](=O)[O-])c(C(F)(F)F)c1 [Flutamide]
Settings | drug sensitivity score
[1] | 0
[2] | 0
[3] | 0
[4] | 0
[5] | 0
[6] | 0
[7] | 0
[8] | 0
[9] | 0
[10] | 0
[11] | 0
[12] | 0
[13] | 0
[14] | 0

normalised viability [%]
Settings | 3 nM | 10 nM | 30 nM | 100 nM | 1000 nM | 10000 nM
[15] | – | 96.9 | – | – | 84.2 | 97
[16] | 101 | – | 91.8 | 101 | – | –
[17] | – | 96.7 | – | – | 95.6 | 96.8
[18] | 109 | – | 105 | 109 | – | –
[19] | – | 97.6 | – | – | 103 | 111
[20] | 123 | – | 94.8 | 107 | – | –
[21] | – | 117 | – | – | 115 | 116
[22] | – | 91.5 | – | – | 95.4 | 91.6
[23] | – | 82 | – | – | 86.3 | 82.5
[24] | – | 89.7 | – | – | 84.3 | 90
[25] | 95.5 | – | 99.9 | 103 | – | –

COc1cc2c(N3CCN(C(=O)Nc4ccc(OC(C)C)cc4)CC3)ncnc2cc1OCCCN1CCCCC1 [Tandutinib]
Settings | drug sensitivity score
[1] | 0
[2] | 0
[3] | 0
[4] | 0
[5] | 0
[6] | 0
[7] | 0
[8] | 0
[9] | 0
[10] | 0
[11] | 0
[12] | 0
[13] | 0
[14] | 0

normalised viability [%]
Settings | 0.3 nM | 1 nM | 3 nM | 10 nM | 100 nM | 1000 nM
[15] | – | 101 | – | – | 78.2 | 115
[16] | 102 | – | 91.2 | 103 | – | –
[17] | – | 110 | – | – | 106 | 114
[18] | 105 | – | 95.5 | 109 | – | –
[19] | – | 105 | – | – | 118 | 110
[20] | 117 | – | 94.9 | 96.9 | – | –
[21] | – | 138 | – | – | 116 | 125
[22] | – | 95 | – | – | 81.9 | 112
[23] | – | 100 | – | – | 118 | 108
[24] | – | 108 | – | – | 95.2 | 94.1
[25] | 100 | – | 102 | 105 | – | –

C[C@]12C=CC(=O)C=C1CC[C@@H]1[C@@H]2C(=O)C[C@@]2(C)[C@H]1CC[C@]2(O)C(=O)CO [Prednisone]
Settings | drug sensitivity score
[1] | 0
[2] | 0
[3] | 0
[4] | 0
[5] | 0
[6] | 0.113
[7] | 0
[8] | 0
[9] | 0
[10] | 0
[11] | 0
[12] | 0
[13] | 0
[14] | 0

normalised viability [%]
Settings | 3 nM | 10 nM | 30 nM | 100 nM | 1000 nM | 10000 nM
[15] | – | 95.7 | – | – | 105 | 98.9
[16] | 95.8 | – | 102 | 90.9 | – | –
[17] | – | 79.9 | – | – | 79.3 | 96.3
[18] | 98.3 | – | 110 | 114 | – | –
[19] | – | 98.6 | – | – | 104 | 98
[20] | 106 | – | 115 | 113 | – | –
[21] | – | 133 | – | – | 109 | 111
[22] | – | 91.3 | – | – | 70.5 | 109
[23] | – | 91 | – | – | 89.1 | 86.8
[24] | – | 96.7 | – | – | 107 | 108
[25] | 94.8 | – | 97.4 | 104 | – | –
